According to ChEMBL document CHEMBL3508693 (2016):

Columns and labels:
[1] = Oral clearance of SPP100 following single oral dose of SPP100 300 mg capsule studied in healthy human; format: ADME, organism-based; conditions: plasma
[2] = % SPP100 (0-168h) recovered in urine following single oral dose of [14C] aliskiren hemifumarate at 3 mg.Kg-1 level in marmoset; format: ADME, organism-based, Callithrix jacchus; conditions: in vivo
CYP2C19 [3] = target: T1, CYP2C19 (Homo sapiens, UniProt P33261); experiment: Inhibitory activity of 20 uM SPP100 on 1214 Pmoles of cDNA-derived CYP2C19 enzyme in microsome prepared from human lymphoblastoid cell line; format: ADME, microsomes; parameters: conc 20 uM, interact cpd conc 50 uM; conditions: probe (S)-mephenytoin (50 uM)
T1 sequence (P33261 whole entry): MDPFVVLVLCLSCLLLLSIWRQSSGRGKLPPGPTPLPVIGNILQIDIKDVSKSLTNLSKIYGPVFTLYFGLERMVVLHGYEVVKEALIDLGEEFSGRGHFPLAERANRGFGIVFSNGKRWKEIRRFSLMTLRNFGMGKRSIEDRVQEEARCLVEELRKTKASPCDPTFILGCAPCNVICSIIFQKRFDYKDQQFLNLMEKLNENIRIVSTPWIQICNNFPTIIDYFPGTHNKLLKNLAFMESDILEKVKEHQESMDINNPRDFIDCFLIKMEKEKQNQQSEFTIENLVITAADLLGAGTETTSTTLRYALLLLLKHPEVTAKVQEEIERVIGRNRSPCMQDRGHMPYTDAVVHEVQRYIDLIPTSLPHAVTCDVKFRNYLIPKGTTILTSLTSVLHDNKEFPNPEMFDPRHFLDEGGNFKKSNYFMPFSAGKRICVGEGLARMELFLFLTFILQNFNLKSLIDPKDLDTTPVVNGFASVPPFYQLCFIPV

CYP2C19 [4] = target: T1, CYP2C19; experiment: Inhibitory activity of 200 uM SPP100 on 1375 Pmoles of cDNA-derived CYP2C19 enzyme in microsome prepared from human lymphoblastoid cell line; format: ADME, microsomes; parameters: conc 200 uM, interact cpd conc 50 uM; conditions: probe (S)-mephenytoin (50 uM)
[5] = % of radioactivity recovered as aliskiren in plasma following intravenous administration of [14C] aliskiren hemifumarate at 10 mg.Kg-1 level in rat; format: ADME, organism-based, Albino HAN:WIST; conditions: in vivo
[6] = Excretion (168h) of radioactivity in faeces following intravenous administration of [14C] aliskiren hemifumarate at 10 mg.Kg-1 level in rat; format: ADME, organism-based, Lister-Hooded, Feces; conditions: in vivo
[7] = Cmax of [14C] aliskiren hemifumarate following single oral dose of [14C] aliskiren hemifumarate at 500 mg.Kg-1 level in mouse; format: ADME, organism-based, TgRasH2, Plasma; conditions: in vivo
[8] = Mean excretion of radioactivity (24-48h) in urine and faeces following single intravenous dose of 10 mg.Kg-1 [14C] aliskiren hemifumarate in mouse; format: ADME, organism-based, TgRasH2, Urine/Feces; conditions: in vivo
[9] = Excretion of radioactivity (48-72h) in faeces following single intravenous dose of 10 mg.Kg-1 [14C] aliskiren hemifumarate in mouse; format: ADME, organism-based, TgRasH2, Feces; conditions: in vivo
[10] = Apparent Vmax value of metabolism of [14C] aliskiren hemifumarate studied in human liver microsome; format: ADME; conditions: microsomes
[11] = Excretion of radioactivity (24-48h) in faeces following single intravenous dose of 10 mg.Kg-1 [14C] aliskiren hemifumarate in rat; format: ADME, organism-based, Albino HAN:WIST, Feces; conditions: in vivo
[12] = Concentration of radioactivity in the colon wall following repeated oral administration of [14C] aliskiren hemifumarate at 100 mg.Kg-1 level studied at 24h after 10th dose in rat; format: ADME, organism-based, Albino HAN:WIST; conditions: in vivo
[13] = Concentration of radioactivity in the brown fat following repeated oral administration of [14C] aliskiren hemifumarate at 100 mg.Kg-1 level studied at 2h after 3rd dose in rat; format: ADME, organism-based, Albino HAN:WIST, Brown adipose tissue; conditions: in vivo
[14] = Concentration of radioactivity in the brown fat following repeated oral administration of [14C] aliskiren hemifumarate at 100 mg.Kg-1 level studied at 2h after 7th dose in rat; format: ADME, organism-based, Albino HAN:WIST, Brown adipose tissue; conditions: in vivo
[15] = Concentration of radioactivity in the brown fat following repeated oral administration of [14C] aliskiren hemifumarate at 100 mg.Kg-1 level studied at 24h after 7th dose in rat; format: ADME, organism-based, Albino HAN:WIST, Brown adipose tissue; conditions: in vivo
[16] = Concentration of radioactivity in the kidney medulla following repeated oral administration of [14C] aliskiren hemifumarate at 100 mg.Kg-1 level studied at 2h after 3rd dose in rat; format: ADME, organism-based, Albino HAN:WIST, Renal medulla; conditions: in vivo
[17] = Tmax (0-168h) of total radioactivity following single intravenous administration of [14C] aliskiren hemifumarate at 1 mg.Kg-1 level in marmoset; format: ADME, organism-based, Callithrix jacchus, Plasma; conditions: in vivo
[18] = AUC (0-96 or 0-168h) of total radioactivity following single intravenous administration of [14C] aliskiren hemifumarate at 1 mg.Kg-1 level in marmoset; format: ADME, organism-based, Callithrix jacchus, Plasma; conditions: in vivo
[19] = AUC/dose (0-168h) of total radioactivity following single intravenous administration of [14C] aliskiren hemifumarate at 1 mg.Kg-1 level in marmoset; format: ADME, organism-based, Callithrix jacchus, Plasma; conditions: in vivo
Cytochrome P450 2D6 = Cytochrome P450 2D6 (Homo sapiens, UniProt P10635); experiment: Activity of human recombinant CYP2D6 assessed as enzyme contribution (% total relative CL) towards [14C]SPP100 hemifumarate metabolism in human liver microsome; format: ADME; conditions: microsomes
Sequence of Cytochrome P450 2D6 (P10635 whole entry): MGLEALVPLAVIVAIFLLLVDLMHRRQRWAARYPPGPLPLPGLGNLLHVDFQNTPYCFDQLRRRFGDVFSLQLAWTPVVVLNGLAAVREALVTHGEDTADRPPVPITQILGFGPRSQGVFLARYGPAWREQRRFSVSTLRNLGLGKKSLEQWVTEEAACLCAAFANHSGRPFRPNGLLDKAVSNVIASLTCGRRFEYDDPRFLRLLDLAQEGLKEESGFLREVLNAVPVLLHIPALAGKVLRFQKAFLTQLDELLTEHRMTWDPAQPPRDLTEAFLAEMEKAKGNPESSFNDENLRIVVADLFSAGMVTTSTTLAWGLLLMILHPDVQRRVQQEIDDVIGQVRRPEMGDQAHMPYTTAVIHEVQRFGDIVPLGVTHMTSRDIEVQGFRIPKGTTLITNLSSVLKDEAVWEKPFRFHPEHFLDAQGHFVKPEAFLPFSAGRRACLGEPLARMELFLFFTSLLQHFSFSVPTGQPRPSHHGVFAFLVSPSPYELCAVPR

[20] = Bioavailability (0-168h) of unlabeled aliskiren hemifumarate following single oral administration of aliskiren hemifumarate at 3 mg.Kg-1 level in marmoset; format: ADME, organism-based, Callithrix jacchus; conditions: plasma
[21] = Tmax of aliskiren hemifumarate following single dosing of SPP100B oral solution at 160 mg level studied on day 1 in men; format: ADME, organism-based; conditions: male, human, plasma
[22] = Cmax of aliskiren hemifumarate following 8 day once-daily dosing of SPP100B oral solution at 80 mg level studied on day 8 in men; format: ADME, organism-based; conditions: male, human, plasma
[23] = Absolute oral bioavailability of aliskiren hemifumarate after single oral administration of [14C] aliskiren hemifumarate in mouse; format: ADME, organism-based, TgRasH2, Plasma; conditions: in vivo, 500 mg/kg
[24] = AUC (0-96h) of unlabeled aliskiren hemifumarate following oral administration of aliskiren hemifumarate at 100 mg.Kg-1 level in rat; format: ADME, organism-based; conditions: Albino HAN:WIST, plasma
[25] = AUC (0-96h) of unlabeled aliskiren hemifumarate following intravenous administration of aliskiren hemifumarate at 10 mg.Kg-1 level in rat; format: ADME, organism-based; conditions: Albino HAN:WIST, plasma
[26] = Effect of 2 week oral dosing of aliskiren hemifumarate at 50 mg.Kg-1 level on hematological parameter values in male Callithrix jacchus; format: toxicity, organism-based, Plasma; conditions: marmoset, in vivo, 336 h
[27] = Effect of 2 week oral dosing of aliskiren hemifumarate at 50 mg.Kg-1 level on plasma creatinine level in male Callithrix jacchus; format: toxicity, organism-based; conditions: marmoset, 336 h
[28] = Cmax of aliskiren hemifumarate following 2 week oral dosing of aliskiren hemifumarate at 100 mg.Kg-1 level studied on day 1 in male Callithrix jacchus; format: ADME, organism-based; conditions: marmoset, plasma
[29] = Cmax of aliskiren hemifumarate following 2 week oral dosing of aliskiren hemifumarate at 100 mg.Kg-1 level studied on day 14 in male Callithrix jacchus; format: ADME, organism-based; conditions: marmoset, plasma
[30] = Cmax of aliskiren hemifumarate following 2 week oral dosing of aliskiren hemifumarate at 50 mg.Kg-1 level studied on day 14 in female Callithrix jacchus; format: ADME, organism-based; conditions: marmoset, plasma
[31] = Tmax of aliskiren hemifumarate following 4 week oral dietary dosing of aliskiren hemifumarate at 500 mg.Kg-1 level in male mouse; format: ADME, organism-based; conditions: CB6F1-TGrasH2, mouse, in vivo
[32] = Cmax/dose of aliskiren hemifumarate following 4 week oral dietary dosing of aliskiren hemifumarate at 1000 mg.Kg-1 level in male mouse; format: ADME, organism-based, CB6F1-TGrasH2; conditions: in vivo, 672 h
[33] = Cmax/dose of aliskiren hemifumarate following 4 week oral dietary dosing of aliskiren hemifumarate at 2000 mg.Kg-1 level in female mouse; format: ADME, organism-based, CB6F1-TGrasH2; conditions: in vivo, 672 h
[34] = AUC (0-24h) of aliskiren hemifumarate following 4 week oral dietary dosing of aliskiren hemifumarate at 2000 mg.Kg-1 level in male mouse; format: ADME, organism-based; conditions: CB6F1-TGrasH2, mouse, plasma
[35] = Cmaxspec of aliskiren hemifumarate following 2 week oral dosing of aliskiren hemifumarate at 50 mg.Kg-1 level studied on day 14 in male Callithrix jacchus; format: ADME, organism-based, Plasma; conditions: marmoset, in vivo, 336 h
[36] = Cmaxspec of aliskiren hemifumarate following 2 week oral dosing of aliskiren hemifumarate at 10 mg.Kg-1 level studied on day 14 in female Callithrix jacchus; format: ADME, organism-based, Plasma; conditions: marmoset, in vivo, 336 h
[37] = AUC(0-24h) of aliskiren hemifumarate following 2 week oral dosing of aliskiren hemifumarate at 50 mg.Kg-1 level studied on day 14 in male Callithrix jacchus; format: ADME, organism-based; conditions: marmoset, plasma
[38] = AUCspec of aliskiren hemifumarate following 2 week oral dosing of aliskiren hemifumarate at 10 mg.Kg-1 level studied on day 14 in female Callithrix jacchus; format: ADME, organism-based, Plasma; conditions: marmoset, in vivo, 336 h
[39] = Plasma clearance (0-168h) of unlabeled aliskiren hemifumarate following single intravenous administration of aliskiren hemifumarate at 1 mg.Kg-1 level in marmoset; format: ADME, organism-based, Callithrix jacchus; conditions: in vivo

Compound: COCCCOc1cc(C[C@@H](C[C@H](N)[C@@H](O)C[C@H](C(=O)NCC(C)(C)C(N)=O)C(C)C)C(C)C)ccc1OC
- CL/F [1]: 4230 mL/min
- Compound recovery [2]: 2.3%
- inhibition at 20 µM (CYP2C19 [3]): -1.9%
- inhibition at 200 µM (CYP2C19 [4]): -15.4%
- Compound recovery [5]: > 40%

Compound: COCCCOc1cc(C[C@@H](C[C@H](N)[C@@H](O)C[C@H](C(=O)NCC([14CH3])([14CH3])C(N)=O)C(C)C)C(C)C)ccc1OC.O=C(O)/C=C/C(=O)O
- Radiolabel recovery [6]: 75%
- Cmax [7]: 2170 nM
- Radiolabel recovery [8]: 7.51%
- Radiolabel recovery [9]: 0.74%
- Vmax [10]: 1807.6 pmol·min/mg
- Radiolabel recovery [11]: 28.2%
- Radiolabel recovery [12]: OUTCOME = Observed, VALUE = Highest radioactivity concentration was observed
- Radiolabel recovery [13]: OUTCOME = Detected
- Radiolabel recovery [14]: OUTCOME = Detected
- Radiolabel recovery [15]: OUTCOME = Detected
- Radiolabel recovery [16]: OUTCOME = Detected
- Tmax [17]: 4.98 min
- AUC [18]: 52.92 µM·h
- AUC normalised [19]: 52.92 (umol.h/L)/(mg/kg)
- Activity (Cytochrome P450 2D6): 0.38%

Compound: COCCCOc1cc(C[C@@H](C[C@H](N)[C@@H](O)C[C@H](C(=O)NCC(C)(C)C(N)=O)C(C)C)C(C)C)ccc1OC.COCCCOc1cc(C[C@@H](C[C@H](N)[C@@H](O)C[C@H](C(=O)NCC(C)(C)C(N)=O)C(C)C)C(C)C)ccc1OC.O=C(O)/C=C/C(=O)O [ALISKIREN FUMARATE]
- bioavailability [20]: 3%
- Tmax [21]: 2.7 h
- Cmax [22]: 12.7 ng/mL
- F [23]: 1.5%
- AUC(0-t) at 96 h [24]: 3.01 µM·h
- AUC(0-t) at 96 h [25]: 12.6 µM·h
- Change in hematology [26]: OUTCOME = Hematological parameter values did not differ from control values. No animals died during the study.
- CREAT_CHANGE_BY [27]: 130%
- Cmax [28]: 7200 ng/mL
- Cmax [29]: 9670 ng/mL
- Cmax [30]: 10100 ng/mL
- Tmax [31]: 3 h
- Cmax normalised [32]: 0.879 (ng/mL)/(mg/kg/day)
- Cmax normalised [33]: 0.615 (ng/mL)/(mg/kg/day)
- AUC(0-t) at 24 h [34]: 7720 ng·h/mL
- Cmax normalised [35]: 0.246 (ug/ml)/(mg/kg)
- Cmax normalised [36]: 0.673 (ug/ml)/(mg/kg)
- AUC at 24 h [37]: 107000 ng·h/mL
- AUC normalised [38]: 2.9 ((ug.h.ml-1)/(mg/kg)
- Plasma clearance [39]: 0.036 L·h/kg
